Data taken from paper PMC2717725 (Journal of medicinal chemistry, 2008).
pIC50: −log10 of the molar value. Structures can show the parent of a compound that is named as a salt.

Columns and labels:
[1] = system: GSK-3 -phosphorylated β-catenin; experiment: β-catenin phosphorylation at GSK-3 sites in SH-SY5Y cells; format: cell-based, human; conditions: 6 h, 10 μM or dose-response, 2 μM MG132
CDK1/cyclin B = CDK1/cyclin B kinase assay; format: biochemical, starfish (Marthasterias glacialis); conditions: read-out: CDK1 IC50, 15 μM ATP
GSK-3α/β = GSK-3α/β kinase assay; format: biochemical, porcine; conditions: for pIC50: read-out: GSK3 IC50, GSK-3α/β, 15 μM ATP, from dose-response curves
[2] = Equilibrium water solubility; format: physicochemical
Rat-1 fibroblasts [3] = experiment: Luminescence assay of circadian rhythmicity, PPer2::Fluc reporter; format: cell-based; conditions: 10 μM, Rat-1 PPer2::Fluc, monitored 4 days
Rat-1 fibroblasts [4] = conditions: lithium 10-20 mM, mammalian cells; cited from earlier work

| pIC50 (CDK1/cyclin B) | SMILES | inhibition of β-catenin phosphorylation at GSK-3 specific sites [1] | other results |
| --- | --- | --- | --- |
|  | CN1C(=O)C(=C2Nc3ccccc3C2=NO)c2ccc(Br)cc21 [1-methyl-6BIO, reference compound] | ineffective |  |
| < 5.00 | O=C1Nc2cc(Br)ccc2/C1=C1/Nc2ccccc2/C1=N\OCCBr [Compound 1, (2′Z-3′E)-6-Bromoindirubin-3′-[O-(2-bromoethyl)-oxime]] |  |  |
| < 5.00 | O=C1Nc2cc(Br)ccc2/C1=C1/Nc2ccccc2/C1=N\OCCO [Compound 2, (2′Z-3′E)-6-Bromoindirubin-3′-[O-(2-hydroxyethyl)-oxime]] |  | pIC50 (GSK-3α/β): 8.52 |
| 6.96 | O=C1Nc2cc(Br)ccc2/C1=C1/Nc2ccccc2/C1=N\OCC(O)CO (stereo not drawn) [Compound 3, (2′Z-3′E)-6-Bromoindirubin-3′-[O-(2,3-dihydroxypropyl)-oxime]] | most efficient | solubility change versus 6BIO (in words) ([2]; water): mediocre improvement of solubility; decrease of activity/affinity on GSK-3 compared to 6BIO (GSK-3α/β; relative to 6BIO): 6 fold |
| < 5.00 | CCN(CC)C(=O)O/N=C1/C(=C2/C(=O)Nc3cc(Br)ccc32)Nc2ccccc21 [Compound 4, (2′Z-3′E)-6-Bromoindirubin-3′-[O-(N,N-diethylcarbamyl)-oxime]] |  |  |
|  | CN(C)CCO/N=C1/C(=C2/C(=O)Nc3cc(Br)ccc32)Nc2ccccc21 [Compound 5, (2′Z-3′E)-6-Bromoindirubin-3′-[O-(2-dimethylaminoethyl)-oxime]] | most efficient |  |
| 6.30 | O=C1Nc2cc(Br)ccc2/C1=C1/Nc2ccccc2/C1=N\OCCN1CCCC1 [Compound 7, (2′Z-3′E)-6-Bromoindirubin-3′-[O-(2-pyrrolidin-1-ylethyl)oxime]] |  |  |
|  | O=C1Nc2cc(Br)ccc2/C1=C1/Nc2ccccc2/C1=N\OCCN(CCO)CCO [Compound 9] | most efficient |  |
|  | O=C1Nc2cc(Br)ccc2/C1=C1/Nc2ccccc2/C1=N\OCCN1CCNCC1 [Compound 11, (2′Z-3′E)-6-Bromoindirubin-3′-[O-(2-piperazine-1-ylethyl)oxime]] | most efficient |  |
|  | CN1CCN(CCO/N=C2/C(=C3/C(=O)Nc4cc(Br)ccc43)Nc3ccccc32)CC1 [Compound 12, (2′Z-3′E)-6-Bromoindirubin-3′-{O-[2-(4-methyl-piperazin-1-yl)ethyl]oxime}] | most efficient | selectivity for GSK-3 versus 6BIO (GSK-3α/β; GSK-3 over CDKs, compared to 6BIO): improved selectivity of one order of magnitude |
|  | O=C1Nc2cc(Br)ccc2/C1=C1/Nc2ccccc2/C1=N\OCCN1CCN(CCO)CC1 [Compound 13, (2′Z-3′E)-6-Bromoindirubin-3′-(O-{2-[4-(2-hydroxyethyl)piperazin-1-yl]ethyl}oxime)] | most efficient |  |
| 6.05 | O=C1Nc2cc(Br)ccc2/C1=C1/Nc2ccccc2/C1=N\OCCN1CCN(CCOCCO)CC1 [Compound 15, (2′Z-3′E)-6-Bromoindirubin-3′-[O-(2-{4-[2-(2-hydroxyethoxy)-ethyl]piperazin-1-yl}ethyl)oxime]] |  | effect on circadian period length (Rat-1 fibroblasts [3]): gradual shortening of the period length |
|  | CN(C)CCO/N=C1/C(=C2/C(=O)Nc3cc(Br)ccc32)Nc2ccccc21.Cl [Compound 16, (2′Z-3′E)-6-Bromoindirubin-3′-[O-(2-dimethylaminoethyl)oxime] Hydrochloride] | most efficient |  |
| 6.35 | O=C1Nc2cc(Br)ccc2/C1=C1/Nc2ccccc2/C1=N\OCCN1CCCC1 [Compound 18, (2′Z-3′E)-6-Bromoindirubin-3′-[O-(2-pyrrolidin-1-ylethyl)oxime] Hydrochloride] |  |  |
|  | Cl.O=C1Nc2cc(Br)ccc2/C1=C1/Nc2ccccc2/C1=N\OCCN(CCO)CCO [Compound 20] | most efficient |  |
| 6.82 | CN(CCON=C1C(=C2C(=O)Nc3cc(Br)ccc32)Nc2ccccc21)CC(O)CO.Cl (stereo not drawn) [Compound 21, (2Z-3′E)-6-Bromoindirubin-3′-(O-{2-[N-methyl, N-(2,3-dihydroxypropyl)amino]ethyl}oxime] Hydrochloride] |  | solubility ([2]; double distilled water): 1450 µg/mL; pIC50 (GSK-3α/β): 7.64 |
|  | Cl.Cl.O=C1Nc2cc(Br)ccc2/C1=C1/Nc2ccccc2/C1=N\OCCN1CCNCC1 [Compound 22, (2′Z-3′E)-6-Bromoindirubin-3′-[O-(2-piperazine-1-ylethyl)oxime] Dihydrochloride] | most efficient |  |
|  | CN1CCN(CCO/N=C2/C(=C3/C(=O)Nc4cc(Br)ccc43)Nc3ccccc32)CC1.Cl.Cl [Compound 23, (2′Z-3′E)-6-Bromoindirubin-3′-{O-[2-(4-methylpiperazin-1-yl)ethyl]oxime} Dihydrochloride] | most efficient |  |
|  | Cl.Cl.O=C1Nc2cc(Br)ccc2/C1=C1/Nc2ccccc2/C1=N\OCCN1CCN(CCO)CC1 [Compound 24, (2′Z-3E)-6-Bromoindirubin-3′-(O-{2-[4-(2-hydroxyethyl)piperazin-1-yl]ethyl}oxime) Dihydrochloride] | most efficient |  |
| 6.00 | COCCN1CCN(CCO/N=C2/C(=C3/C(=O)Nc4cc(Br)ccc43)Nc3ccccc32)CC1 [Compound 25, (2′Z-3E)-6-Bromoindirubin-3′-(O-{2-[4-(2-methoxyethyl)piperazin-1-yl]ethyl}oxime) Dihydrochloride] |  |  |
| 6.30 | O=C1Nc2cc(Br)ccc2/C1=C1/Nc2ccccc2/C1=N\OCCN1CCN(CCOCCO)CC1 [Compound 26, (2′Z-3′E)-6-Bromoindirubin-3′-[O-(2-{4-[2-(2-hydroxyethoxy)-ethyl]piperazin-1-yl}ethyl)oxime] Dihydrochloride] |  |  |
|  | [Li] [Lithium] |  | effect on circadian period (Rat-1 fibroblasts [4]): lengthens the period |
